What was measured:
JAK3 = molecular target: T1, JAK3 (Homo sapiens, UniProt P52333); test: JAK3 inhibition assay (33P incorporation into poly(Glu)4Tyr); type: biochemical; settings: 1 nM JAK3; 1 μM poly(Glu)4Tyr, 5 μM ATP, 25° C.; read-out: JAK3 enzyme inhibition (Ki)
T1 sequence (P52333 1-1124): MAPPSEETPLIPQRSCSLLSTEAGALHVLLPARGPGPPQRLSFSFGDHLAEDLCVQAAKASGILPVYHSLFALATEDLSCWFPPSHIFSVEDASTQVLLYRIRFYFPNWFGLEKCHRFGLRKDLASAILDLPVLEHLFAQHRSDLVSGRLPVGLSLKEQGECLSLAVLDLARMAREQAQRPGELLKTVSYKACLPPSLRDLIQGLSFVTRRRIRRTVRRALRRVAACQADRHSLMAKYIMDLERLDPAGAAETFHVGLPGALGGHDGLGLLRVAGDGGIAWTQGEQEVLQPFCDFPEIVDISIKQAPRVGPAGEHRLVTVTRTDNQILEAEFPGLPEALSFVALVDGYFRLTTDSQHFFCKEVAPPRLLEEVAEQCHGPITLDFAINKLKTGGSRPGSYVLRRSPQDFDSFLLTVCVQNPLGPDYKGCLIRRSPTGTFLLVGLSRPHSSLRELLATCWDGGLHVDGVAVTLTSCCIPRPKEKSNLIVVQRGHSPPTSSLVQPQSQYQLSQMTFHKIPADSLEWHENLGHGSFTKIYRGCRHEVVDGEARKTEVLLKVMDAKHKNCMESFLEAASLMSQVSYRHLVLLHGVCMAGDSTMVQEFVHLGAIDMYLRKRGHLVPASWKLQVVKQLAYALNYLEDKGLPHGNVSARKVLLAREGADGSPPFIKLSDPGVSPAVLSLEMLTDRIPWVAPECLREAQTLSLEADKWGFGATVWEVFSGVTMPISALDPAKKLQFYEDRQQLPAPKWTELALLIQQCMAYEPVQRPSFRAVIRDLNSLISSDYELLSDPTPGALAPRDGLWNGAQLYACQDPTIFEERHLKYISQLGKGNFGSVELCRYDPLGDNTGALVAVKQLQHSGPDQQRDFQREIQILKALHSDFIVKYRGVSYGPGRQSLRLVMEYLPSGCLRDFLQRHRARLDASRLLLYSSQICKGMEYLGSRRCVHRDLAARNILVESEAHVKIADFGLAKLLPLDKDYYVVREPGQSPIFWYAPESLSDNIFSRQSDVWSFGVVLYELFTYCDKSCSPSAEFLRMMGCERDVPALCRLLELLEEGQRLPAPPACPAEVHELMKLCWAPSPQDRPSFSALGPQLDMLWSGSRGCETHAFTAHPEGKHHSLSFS
Protocol: (§1) Compounds were screened for their ability to inhibit JAK3 using the assay shown below. Reactions were carried out in a kinase buffer containing 100 mM HEPES (pH 7.4), 1 mM DTT, 10 mM MgCl2, 25 mM NaCl, and 0.01% BSA. Substrate concentrations in the assay were 5 μM ATP (200 uCi/μmole ATP) and 1 μM poly(Glu)4Tyr. Reactions were carried out at 25° C. and 1 nM JAK3.
(§2) To each well of a 96 well polycarbonate plate was added 1.5 μl of a candidate JAK3 inhibitor along with 50 μl of kinase buffer containing 2 μM poly(Glu)4Tyr and 10 μM ATP. This was then mixed and 50 μl of kinase buffer containing 2 nM JAK3 enzyme was added to start the reaction. After 20 minutes at room temperature (25° C.), the reaction was stopped with 50 μl of 20% trichloroacetic acid (TCA) that also contained 0.4 mM ATP. The entire contents of each well were then transferred to a 96 well glass fiber filter plate using a TomTek Cell Harvester. After washing, 60 μl of scintillation fluid was added and ^33P incorporation detected on a Perkin Elmer TopCount.

JAK-2 enzyme = JAK-2 enzyme (Homo sapiens, UniProt O60674); test: JAK2 inhibition assay (33P incorporation into poly(Glu)4Tyr); type: biochemical; settings: 15 μM poly(Glu)4Tyr, 12 μM ATP
Sequence of JAK-2 enzyme (O60674 whole entry): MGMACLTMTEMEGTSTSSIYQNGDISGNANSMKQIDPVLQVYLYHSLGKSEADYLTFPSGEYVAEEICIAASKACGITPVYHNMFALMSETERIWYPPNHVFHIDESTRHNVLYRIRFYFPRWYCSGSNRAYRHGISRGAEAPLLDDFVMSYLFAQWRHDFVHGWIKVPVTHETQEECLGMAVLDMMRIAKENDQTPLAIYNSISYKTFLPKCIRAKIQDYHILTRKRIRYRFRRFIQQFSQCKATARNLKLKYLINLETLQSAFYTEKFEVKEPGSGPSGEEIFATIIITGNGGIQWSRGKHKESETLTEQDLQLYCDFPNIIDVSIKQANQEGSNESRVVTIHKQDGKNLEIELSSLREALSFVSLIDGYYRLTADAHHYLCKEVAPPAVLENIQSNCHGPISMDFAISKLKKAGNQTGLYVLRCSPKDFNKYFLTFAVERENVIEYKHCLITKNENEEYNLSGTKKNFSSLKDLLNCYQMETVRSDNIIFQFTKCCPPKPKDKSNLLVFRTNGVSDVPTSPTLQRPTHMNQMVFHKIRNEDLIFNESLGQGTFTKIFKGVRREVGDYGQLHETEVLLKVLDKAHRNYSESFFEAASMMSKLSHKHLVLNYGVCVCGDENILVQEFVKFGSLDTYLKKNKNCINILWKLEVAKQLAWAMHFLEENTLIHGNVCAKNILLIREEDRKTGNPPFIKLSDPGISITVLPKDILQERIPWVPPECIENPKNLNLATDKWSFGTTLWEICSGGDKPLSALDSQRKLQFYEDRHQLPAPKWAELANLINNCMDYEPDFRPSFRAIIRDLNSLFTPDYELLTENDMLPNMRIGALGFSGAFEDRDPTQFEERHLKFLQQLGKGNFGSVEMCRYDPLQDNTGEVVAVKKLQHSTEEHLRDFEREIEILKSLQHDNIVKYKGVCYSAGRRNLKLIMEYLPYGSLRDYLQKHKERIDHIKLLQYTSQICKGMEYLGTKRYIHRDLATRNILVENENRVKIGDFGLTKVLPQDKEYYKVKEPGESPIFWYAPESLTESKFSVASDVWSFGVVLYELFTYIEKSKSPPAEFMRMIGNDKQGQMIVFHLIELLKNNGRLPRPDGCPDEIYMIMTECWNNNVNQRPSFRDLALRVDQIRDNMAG
Protocol: as §1, §2
The assays were as described above in Example 36 except that JAK-2 enzyme was used, the final poly(Glu)4Tyr concentration was 15 μM, and final ATP concentration was 12 μM.

`CN(CC#N)C(=O)c1cc(-c2ncnc3[nH]ccc23)cn1C` [Compound 236] was tested, and the Ki (JAK3) was 100 to 500 nM and the Ki (JAK-2 enzyme) was under 100 nM.

Reference: US8741912B2, “Deazapurines useful as inhibitors of Janus kinases” (Vertex Pharmaceuticals Incorporated, priority 2006, dated 2014)
